Test results taken from article doi:10.1101/2024.07.16.603720v1 (biorxiv, 2024).
In brackets after ≈: the same amount, converted by molar mass.

Experiments:
[1] = system: A. baumannii AB19606 WT (19606); assay: microbe, parasite or virus in culture; design: species or system Acinetobacter baumannii AB19606; details: Acinetobacter baumannii, read-out: MIC
sDacC (sPBP5/6) [2] = biological target: T1, sDacC (sPBP5/6) (Acinetobacter baumannii, UniProt G1C735); assay: Bocillin FL competition, SDS-PAGE fluorescence; assay type: binding
T1 sequence (G1C735 20-367): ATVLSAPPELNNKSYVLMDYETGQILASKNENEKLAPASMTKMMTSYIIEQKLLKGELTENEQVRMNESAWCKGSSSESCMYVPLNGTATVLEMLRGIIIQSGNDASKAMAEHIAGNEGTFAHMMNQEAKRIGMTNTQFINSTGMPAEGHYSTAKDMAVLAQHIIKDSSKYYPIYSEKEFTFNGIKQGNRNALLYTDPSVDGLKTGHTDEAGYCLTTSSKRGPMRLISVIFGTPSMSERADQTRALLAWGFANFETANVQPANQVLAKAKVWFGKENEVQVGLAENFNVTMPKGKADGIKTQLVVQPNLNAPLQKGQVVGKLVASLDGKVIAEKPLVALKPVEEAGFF

sDacD (sPBP6b) [3] = biological target: T2, sDacD (sPBP6b) (Acinetobacter baumannii, UniProt A0ABX6CI93); assay: Bocillin FL competition, SDS-PAGE fluorescence; assay type: binding
T2 sequence (A0ABX6CI93 22-409): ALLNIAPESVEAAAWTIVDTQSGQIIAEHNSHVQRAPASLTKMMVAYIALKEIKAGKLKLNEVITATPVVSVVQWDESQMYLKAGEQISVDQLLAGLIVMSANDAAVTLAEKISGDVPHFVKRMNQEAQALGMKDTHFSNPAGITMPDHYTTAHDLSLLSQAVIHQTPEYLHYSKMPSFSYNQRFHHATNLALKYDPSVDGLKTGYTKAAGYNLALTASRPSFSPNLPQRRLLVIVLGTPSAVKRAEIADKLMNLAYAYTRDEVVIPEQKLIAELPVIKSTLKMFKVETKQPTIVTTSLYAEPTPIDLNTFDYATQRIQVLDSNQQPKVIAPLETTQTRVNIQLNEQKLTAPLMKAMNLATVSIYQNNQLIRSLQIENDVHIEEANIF

sDacD (sPBP6b) [4] = biological target: T2, sDacD (sPBP6b); assay: biochemical
sDacC (sPBP5/6) [5] = biological target: T1, sDacC (sPBP5/6); assay: biochemical
[6] = substrate: C[C@@H](O)[C@H]1C(=O)N2C(C(=O)O)=C(S[C@@H]3CN[C@H](C(=O)N(C)C)C3)[C@H](C)[C@H]12; assay: purified protein, by the assay type; details: pH 7.4; 30.0 °C
[7] = substrate: C[C@@H](O)[C@H]1C(=O)N2C(C(=O)O)=C(S[C@@H]3CN[C@H](CNS(N)(=O)=O)C3)[C@H](C)[C@H]12; assay: purified protein, by the assay type; details: pH 7.4; 30.0 °C
[8] = substrate: CC(C)(O/N=C(\C(=O)N[C@@H]1C(=O)N2C(C(=O)[O-])=C(C[n+]3ccccc3)CS[C@H]12)c1csc(N)n1)C(=O)O; assay: purified protein, by the assay type; details: pH 7.4; 30.0 °C
[9] = substrate: NC(=O)c1cc[n+](CC2=C(C(=O)O)N3C(=O)[C@@H](NC(=O)[C@@H](c4ccccc4)S(=O)(=O)[O-])[C@H]3SC2)cc1; assay: purified protein, by the assay type; details: pH 7.4; 30.0 °C
purified protein [10] = substrate: CC1(C)S[C@@H]2[C@H](NC(=O)Cc3ccccc3)C(=O)N2[C@H]1C(=O)O; assay: purified protein; details: 10 mM phosphate, pH 7.4, 30 °C
purified protein [11] = substrate: CO/N=C(\C(=O)N[C@@H]1C(=O)N2C(C(=O)O)=C(COC(C)=O)CS[C@H]12)c1csc(N)n1; assay: purified protein; details: 10 mM phosphate, pH 7.4, 30 °C
purified protein [12] = substrate: CC1(C)S[C@@H]2[C@H](NC(=O)[C@H](C(=O)O)c3ccsc3)C(=O)N2[C@H]1C(=O)O; assay: purified protein; details: 10 mM phosphate, pH 7.4, 30 °C
purified protein [13] = substrate: C[C@@H](O)[C@H]1C(=O)N2C(C(=O)O)=C(SCCN=CN)C[C@H]12; assay: purified protein; details: 10 mM phosphate, pH 7.4, 30 °C

| Molecule | MIC [1] [µg/mL] | IC50 (sDacC (sPBP5/6) [2]) [µM] | IC50 (sDacD (sPBP6b) [3]) [µM] | other results |
| --- | --- | --- | --- | --- |
| CC1(C)S[C@@H]2[C@H](NC(=O)[C@H](N)c3ccc(O)cc3)C(=O)N2[C@H]1C(=O)O [AMX, Amoxicillin] | 1000 (≈ 2740 µM) |  |  |  |
| CC(C)(O/N=C(\C(=O)N[C@@H]1C(=O)N2C(C(=O)[O-])=C(C[n+]3ccccc3)CS[C@H]12)c1csc(N)n1)C(=O)O [CAZ, Ceftazidime] | 16 (≈ 29.3 µM) |  |  |  |
| C=CC1=C(C(=O)O)N2C(=O)[C@@H](NC(=O)/C(=N\OCC(=O)O)c3csc(N)n3)[C@H]2SC1 [Cefixime] |  | 20.9 | 52.8 |  |
| CO/N=C(\C(=O)N[C@@H]1C(=O)N2C(C(=O)O)=C(COC(N)=O)CS[C@H]12)c1ccco1 [Cefuroxime] | 500 (≈ 1180 µM) | 12.9 | 161 |  |
| O=C(O)[C@H]1/C(=C/CO)O[C@@H]2CC(=O)N21 [Clavulanic acid] |  |  | 5.8 |  |
| Cc1onc(-c2ccccc2)c1C(=O)N[C@@H]1C(=O)N2[C@@H]1SC(C)(C)[C@@H]2C(=O)O [Oxacillin] | 500 (≈ 1250 µM) | 95.9 | 417 |  |
| CCN1CCN(C(=O)N[C@@H](C(=O)N[C@@H]2C(=O)N3[C@@H]2SC(C)(C)[C@@H]3C(=O)O)c2ccccc2)C(=O)C1=O [PIP, Piperacillin] | 500 (≈ 966 µM) |  |  | IC50 (sDacD (sPBP6b) [4]): 3280 µM; IC50 (sDacC (sPBP5/6) [5]): 539 µM |
| CC1(C)S[C@@H]2[C@H](NC(=O)Cc3ccccc3)C(=O)N2[C@H]1C(=O)O [Penicillin G] | > 2000 |  |  |  |
| CC1(C)[C@H](C(=O)O)N2C(=O)C[C@H]2S1(=O)=O [Sulbactam] |  |  | 3.8 | IC50 (sDacC (sPBP5/6) [5]): 184 µM |
| C[C@]1(Cn2ccnn2)[C@H](C(=O)O)N2C(=O)C[C@H]2S1(=O)=O [Tazobactam] |  |  |  | IC50 (sDacD (sPBP6b) [4]): 1590 µM; IC50 (sDacC (sPBP5/6) [5]): 1830 µM |
| CC1(C)S[C@@H]2[C@H](NC(=O)[C@H](C(=O)O)c3ccsc3)C(=O)N2[C@H]1C(=O)O [Ticarcillin] | 16 (≈ 41.6 µM) |  |  |  |
| sDacC (sPBP5/6) (Acinetobacter baumannii) (protein) ATVLSAPPELNNKSYVLMDYETGQILASKNENEKLAPASMTKMMTSYIIEQKLLKGELTENEQVRMNESAWCKGSSSESCMYVPLNGTATVLEMLRGIIIQSGNDASKAMAEHIAGNEGTFAHMMNQEAKRIGMTNTQFINSTGMPAEGHYSTAKDMAVLAQHIIKDSSKYYPIYSEKEFTFNGIKQGNRNALLYTDPSVDGLKTGHTDEAGYCLTTSSKRGPMRLISVIFGTPSMSERADQTRALLAWGFANFETANVQPANQVLAKAKVWFGKENEVQVGLAENFNVTMPKGKADGIKTQLVVQPNLNAPLQKGQVVGKLVASLDGKVIAEKPLVALKPVEEAGFF |  |  |  | Km [6]: 12.19 µM; kcat [6]: 10 s⁻¹; kcat/Km [6]: 820000 M⁻¹ s⁻¹; Km [7]: 17.39 µM; kcat [7]: 5.35 s⁻¹; kcat/Km [7]: 310000 M⁻¹ s⁻¹; Km [8]: 21.09 µM; kcat [8]: 8.36 s⁻¹; kcat/Km [8]: 390000 M⁻¹ s⁻¹; Km [9]: 21.21 µM; kcat [9]: 12.2 s⁻¹; kcat/Km [9]: 570000 M⁻¹ s⁻¹; Km (purified protein [10]): 8.2 ± 1.4 µM; kcat (purified protein [10]): 65.81 ± 12.5 s⁻¹; Km (purified protein [11]): 6.09 ± 0.9 µM; kcat (purified protein [11]): 7.04 ± 1.1 s⁻¹; Km (purified protein [12]): 12.47 ± 2.5 µM; kcat (purified protein [12]): 93.31 ± 9.0 s⁻¹; Km (purified protein [13]): 3.75 ± 0.4 µM; kcat (purified protein [13]): 7.52 ± 0.5 s⁻¹ |

Second part, led by results:

| MIC [1] [µg/mL] | IC50 (sDacC (sPBP5/6) [2]) [µM] | IC50 (sDacD (sPBP6b) [3]) [µM] | Molecule | other results |
| --- | --- | --- | --- | --- |
| 64 (≈ 141 µM) |  |  | CO/N=C(\C(=O)N[C@@H]1C(=O)N2C(C(=O)O)=C(COC(C)=O)CS[C@H]12)c1csc(N)n1 [Cefotaxime] |  |
| 250 (≈ 469 µM) | 6.3 | 8.6 | NC(=O)c1cc[n+](CC2=C(C(=O)[O-])N3C(=O)[C@@H](NC(=O)[C@@H](c4ccccc4)S(=O)(=O)O)[C@H]3SC2)cc1 [Cefsulodin] |  |
| 1.6 (≈ 3.8 µM) | 9.2 | 1.7 | C[C@@H](O)[C@H]1C(=O)N2C(C(=O)O)=C(S[C@@H]3CN[C@H](CNS(N)(=O)=O)C3)[C@H](C)[C@H]12 [Doripenem] |  |
| 500 (≈ 1170 µM) |  |  | CO[C@@]1(NC(=O)Cc2cccs2)C(=O)N2C(C(=O)O)=C(COC(N)=O)CS[C@@H]21 [FOX, Cefoxitin] |  |
| 1.6 (≈ 4.17 µM) | 15.7 | 2.7 | C[C@@H](O)[C@H]1C(=O)N2C(C(=O)O)=C(S[C@@H]3CN[C@H](C(=O)N(C)C)C3)[C@H](C)[C@H]12 [Meropenem] |  |
